Source: ChEMBL document CHEMBL3797195, “Bacterial lipid membranes as promising targets to fight antimicrobial resistance, molecular foundations and illustration through the renewal of aminoglycoside antibiotics and emergence of amphiphilic aminoglycosides” (2016)
Values after ≈ are worked out from the molar mass of the structure shown.

Tests used:
Assay type in all cases: functional
[1] = test system: Escherichia coli; assay: Antibacterial activity against Escherichia coli ATCC 25922 after 12 to 18 hrs by two fold dilution method
[2] = test system: Staphylococcus aureus; assay: Antibacterial activity against Staphylococcus aureus ATCC 25923 after 12 to 18 hrs by two fold dilution method
[3] = test system: Pseudomonas aeruginosa; assay: Antibacterial activity against clinical colistin-resistant Pseudomonas aeruginosa by microdilution method
[4] = test system: Escherichia coli; assay: Antibacterial activity against Escherichia coli ATCC 25922 after 24 hrs by MTT assay; settings: ATCC 25922, 24 h
[5] = test system: Pseudomonas aeruginosa; assay: Antibacterial activity against Pseudomonas aeruginosa after 12 to 18 hrs by MTT assay
[6] = test system: Klebsiella pneumoniae; assay: Antibacterial activity against Klebsiella pneumoniae after 12 to 18 hrs by MTT assay
[7] = test system: Staphylococcus aureus; assay: Antibacterial activity against methicillin-resistant Staphylococcus aureus after 24 hrs by MTT assay

SMILES | MIC [1] [µg/mL] | MIC [2] [µg/mL] | also measured
NC[C@H]1O[C@H](O[C@H]2[C@H](O)[C@@H](OCCCCCCCCCc3ccc4ccccc4c3)[C@H](N)C[C@@H]2N)[C@H](N)[C@@H](OCCCCCCCCCc2ccc3ccccc3c2)[C@@H]1O | – | – | MIC [3]: 2 µg/mL (≈ 2.42 µM)
CCCCCCCCO[C@@H]1[C@@H](N)[C@H](O)[C@H](O[C@H]2[C@H](O)[C@@H](O[C@@H]3O[C@@H](CN)[C@H](O)[C@@H](O)[C@@H]3N)[C@H](N)C[C@@H]2N)O[C@H]1CO (single isomer, unassigned) | > 32 | > 32 | –
NC[C@H]1O[C@H](O[C@H]2[C@H](O)[C@@H](OCCCCc3ccc4ccccc4c3)[C@H](N)C[C@@H]2N)[C@H](N)[C@@H](OCCCCc2ccc3ccccc3c2)[C@@H]1O | – | – | MIC [3]: 2 µg/mL (≈ 2.91 µM)
CCCCCCCO[C@@H]1[C@@H](OCCCCCCC)[C@H](N)C[C@H](N)[C@H]1O[C@H]1O[C@H](CN)[C@@H](OCCCCCCC)C[C@H]1N | – | – | MIC [4]: 4 µg/mL (≈ 6.66 µM); MIC [5]: 4 µg/mL (≈ 6.66 µM); MIC [6]: 4 µg/mL (≈ 6.66 µM); MIC [7]: 1 µg/mL (≈ 1.66 µM)
CCCCCCCCO[C@@H]1[C@@H](O[C@H]2O[C@H](CN)[C@@H](O)[C@H](O)[C@H]2N)[C@H](N)C[C@H](N)[C@H]1O[C@H]1O[C@H](CO)[C@@H](O)[C@H](N)[C@H]1O (stereo in doubt) | > 32 | > 32 | –
NC[C@H]1O[C@H](O[C@H]2[C@H](O)[C@@H](OCCCc3ccc4ccccc4c3)[C@H](N)C[C@@H]2N)[C@H](N)[C@@H](OCCCc2ccc3ccccc3c2)[C@@H]1O | – | – | MIC [3]: 2 µg/mL (≈ 3.04 µM)

Second part, led by results:

MIC [1] [µg/mL] | MIC [2] [µg/mL] | SMILES | also measured
> 32 | > 32 | CCCCCCCCO[C@@H]1[C@@H](O[C@H]2O[C@H](CN)[C@@H](O)[C@H](O)[C@H]2N)[C@H](N)C[C@H](N)[C@H]1O[C@H]1O[C@H](CO)[C@@H](O)[C@H](O)[C@H]1O (stereo in doubt) | –
> 32 | > 32 | CCCCCCOC[C@@H]1O[C@@H](O[C@@H]2[C@@H](O)[C@H](O[C@@H]3O[C@@H](CN)[C@H](O)[C@@H](O)[C@@H]3N)[C@@H](N)C[C@H]2N)[C@@H](O)[C@H](O)[C@H]1O (stereo in doubt) | –
> 32 | > 32 | CCCCCCCCO[C@H]1[C@@H](O[C@@H]2[C@@H](O)[C@H](O[C@H]3O[C@H](CN)[C@@H](O)[C@H](O)[C@H]3N)[C@@H](N)C[C@H]2N)O[C@H](CO)[C@@H](O)[C@@H]1O | –
> 32 | > 32 | CCCCCCCCOC[C@@H]1O[C@@H](O[C@@H]2[C@@H](O)[C@H](O[C@@H]3O[C@@H](CN)[C@H](O)[C@@H](O)[C@@H]3N)[C@@H](N)C[C@H]2N)[C@@H](O)[C@H](O)[C@H]1O (stereo in doubt) | –
> 32 | > 32 | CCCCCCCCO[C@@H]1[C@@H](O)[C@H](O)[C@H](O[C@H]2[C@H](O)[C@@H](O[C@@H]3O[C@@H](CN)[C@H](O)[C@@H](O)[C@@H]3N)[C@H](N)C[C@@H]2N)O[C@H]1CO (single isomer, unassigned) | –
> 32 | > 32 | CCCCCCCCO[C@@H]1[C@@H](O)[C@@H](O[C@@H]2[C@@H](O)[C@H](O[C@H]3O[C@H](CN)[C@@H](O)[C@H](O)[C@H]3N)[C@@H](N)C[C@H]2N)O[C@H](CO)[C@H]1O | –
